One series relates to Wistar male rats. Briefly: Acute toxicity of esculetin derivatives, rats. The note with it: rat, in vivo. On the procedure:
(§1) The toxicity of the esculetin derivatives of the present invention was examined. Typical examples of the present derivatives were administered orally at a dose of 2000 mg/kg (body weight) to male mice and male rats which were then observed for seven days. No deaths and no remarkable toxicity were observed. The esculetin derivatives of the present invention are extremely safe compounds (see Example 27).
(§2) The acute toxicity of the present substance was examined using Crj: CD-1 (ICR) male mice (6 weeks old) and Wistar male rats (6 weeks old). 6-(β-2-acetoamide-2-deoxy-D-glucopyranosyloxy)-7-hydroxycoumarin [Ib-2] […] No deaths were observed. […] In the experiments, two animals were used for each group.

Series [1] deals with Crj: CD-1 (ICR) male mice. The series is described as follows: Acute toxicity of esculetin derivatives, mice. The conditions noted are these: mouse, in vivo. How it is done:
as §1, §2

The next series has as its system GAG in the matrix. Briefly: Suppression of reduction in GAG in the matrix caused by stimulation of interleukin-1 or the like.

Regarding `CC(=O)N[C@H]1[C@H](Oc2cc3ccc(=O)oc3cc2O)O[C@H](CO)[C@@H](O)[C@@H]1O` [Ib-2], the deaths entry (with Wistar male rats; in series [1]) was “No deaths” in each case.

Take `O=c1ccc2cc(O)c(O)cc2o1` [esculetin]: the “suppression of the reduction in GAG in the matrix” value with GAG in the matrix is “strongly suppress the reduction in the GAG in the matrix”.

Consider `Cc1cc(=O)oc2cc(O)c(O)cc12` [4-methylesculetin], for which the “suppression of the reduction in GAG in the matrix” value in the series on GAG in the matrix is reported as “strongly suppress the reduction in the GAG in the matrix”.

Values taken from patent publication US5736522A, “Esculetin derivatives and method for manufacture thereof, use thereof, and pharmaceutical composition” (Kureha Chemical Industry Co., Ltd., priority 1993, dated 1998).
